# Earlier results, collected in patent US10188693B2, “Methods for treatment of atherosclerosis” (Stealth BioTherapeutics Corp, priority 2012, dated 2019).
# Key:
# hepatitis C virus (HCV) = details: in vitro model of HCV infection (alone and with interferon); cited from earlier work
# [1] = test system: spinal cord injury in rodents; details: administered both pre- and post-injury; cited from earlier work
compound,measurement,setting,value
O=C(O)C[C@H](O)C[C@H](O)/C=C/c1c(C2CC2)nc2ccccc2c1-c1ccc(F)cc1 [pitavastatin],"anti-HCV effect, in words",hepatitis C virus (HCV),anti-HCV effect
CC(C)c1c(C(=O)Nc2ccccc2)c(-c2ccccc2)c(-c2ccc(F)cc2)n1CC[C@@H](O)C[C@@H](O)CC(=O)O [atorvastatin],"anti-HCV effect, in words",hepatitis C virus (HCV),anti-HCV effect
same,"effect on spinal cord injury, in words",[1],"promoting locomotion and tissue sparing, as well as reducing inflammation"
CC[C@H](C)C(=O)O[C@H]1C[C@@H](C)C=C2C=C[C@H](C)[C@H](CC[C@@H]3C[C@@H](O)CC(=O)O3)[C@H]21 [lovastatin],"anti-HCV effect, in words",hepatitis C virus (HCV),anti-HCV effect
